From ChEMBL document CHEMBL1201862, “PubChem BioAssay data set” (2004)
Activity calls are given as the source filed them.

What was measured:
[1] = target: T1, Polyadenylate-binding protein 1 (Homo sapiens, UniProt P11940); experiment: MLLE domain peptide-binding blockers, IC50 – biochemical, fluorescence polarization, FITC-PAM2 peptide, dose response (AID 602259); type: functional; settings: read-out: IC50_Mean
[2] = target: T1, Polyadenylate-binding protein 1; experiment: MLLE binding blockers, Cy5 peptide tracer – biochemical, fluorescence polarization, Cy5-PAM2 peptide, secondary, miRNA deadenylation inhibitor project, dose response (AID 602260); type: functional; settings: read-out: IC50_Mean
[3] = target: T2, Corticotropin-releasing factor receptor 2/Corticotropin-releasing factor-binding protein (Homo sapiens, UniProt P24387+Q13324); experiment: Dose Response confirmation of uHTS hits for small molecule antagonists of the CRF-binding protein and CRF-R2 receptor complex.; type: functional; settings: read-out: IC50_Mean
T2 sequence (Q13324 whole entry): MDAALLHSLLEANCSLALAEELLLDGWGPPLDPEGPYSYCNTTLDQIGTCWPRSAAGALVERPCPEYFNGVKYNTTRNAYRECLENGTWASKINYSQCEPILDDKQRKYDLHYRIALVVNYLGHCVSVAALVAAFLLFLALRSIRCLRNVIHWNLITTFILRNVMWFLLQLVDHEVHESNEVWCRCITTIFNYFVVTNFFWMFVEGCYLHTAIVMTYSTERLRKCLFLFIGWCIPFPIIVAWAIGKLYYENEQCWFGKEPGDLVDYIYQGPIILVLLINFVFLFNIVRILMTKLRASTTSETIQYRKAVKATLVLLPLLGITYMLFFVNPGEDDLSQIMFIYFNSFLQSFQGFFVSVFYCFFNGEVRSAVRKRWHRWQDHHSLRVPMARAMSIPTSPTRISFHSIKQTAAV
T2 sequence (P24387 whole entry): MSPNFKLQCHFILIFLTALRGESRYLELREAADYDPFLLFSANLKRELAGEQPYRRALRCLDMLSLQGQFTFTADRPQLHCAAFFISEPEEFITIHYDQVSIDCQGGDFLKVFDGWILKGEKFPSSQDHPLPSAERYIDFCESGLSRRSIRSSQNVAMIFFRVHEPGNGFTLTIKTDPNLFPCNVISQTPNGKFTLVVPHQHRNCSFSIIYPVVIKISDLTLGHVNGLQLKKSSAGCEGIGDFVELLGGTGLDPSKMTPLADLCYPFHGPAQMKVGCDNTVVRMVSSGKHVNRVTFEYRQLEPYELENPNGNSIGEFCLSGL

[4] = target: T2, Corticotropin-releasing factor receptor 2/Corticotropin-releasing factor-binding protein; experiment: activators of CRF receptor 2 with binding protein – uHTS hits, confirmation (AID 602473); type: functional; settings: read-out: EC50_Mean
[5] = target: T3, Heat shock factor protein 1 (Mus musculus, UniProt P38532); experiment: enhancement of HSF1-driven luciferase signal – cell-based, NIH3T3, luminescence, dose retest, confirmation (AID 435004); type: functional;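 note: stress induced by proteasome inhibitor MG132 added 30 min after compound; luciferase reporter driven by HSF1 response element in NIH3T3 cells; actives raise luminescence as potentiators of the MG132 stress response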
T3 sequence (P38532 whole entry): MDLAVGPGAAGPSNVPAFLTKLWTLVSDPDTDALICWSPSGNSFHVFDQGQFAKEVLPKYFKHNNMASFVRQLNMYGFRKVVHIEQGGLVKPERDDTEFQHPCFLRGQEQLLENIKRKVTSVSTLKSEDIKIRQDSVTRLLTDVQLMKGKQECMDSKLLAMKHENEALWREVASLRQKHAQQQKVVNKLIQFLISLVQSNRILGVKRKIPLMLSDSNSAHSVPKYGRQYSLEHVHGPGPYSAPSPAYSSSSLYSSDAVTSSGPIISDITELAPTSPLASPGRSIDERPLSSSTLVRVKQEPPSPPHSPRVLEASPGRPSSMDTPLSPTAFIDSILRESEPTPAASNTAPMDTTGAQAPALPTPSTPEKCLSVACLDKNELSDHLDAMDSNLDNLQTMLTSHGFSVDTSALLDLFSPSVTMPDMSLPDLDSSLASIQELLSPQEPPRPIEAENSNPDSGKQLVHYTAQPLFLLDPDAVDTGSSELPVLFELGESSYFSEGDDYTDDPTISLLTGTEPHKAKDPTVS

cells = type: functional
[6] = target: FAD-linked sulfhydryl oxidase ALR (Homo sapiens, UniProt P55789); experiment: ALR-catalysed DTT oxidation blockers – biochemical, H2O2 detection, luminescence, cherry-pick, dose response (AID 493248)
Sequence of FAD-linked sulfhydryl oxidase ALR (P55789 whole entry): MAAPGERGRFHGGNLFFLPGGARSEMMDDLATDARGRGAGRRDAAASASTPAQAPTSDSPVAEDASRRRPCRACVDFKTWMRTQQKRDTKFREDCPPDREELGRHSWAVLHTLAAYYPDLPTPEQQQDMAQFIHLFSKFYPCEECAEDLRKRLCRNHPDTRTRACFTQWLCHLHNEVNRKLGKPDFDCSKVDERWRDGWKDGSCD

[7] = NIH3T3 cell viability loss – ATP luminescence, mouse fibroblasts, counter-screen, dose response (AID 2010); type: functional, cell-based;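 note: cells exposed to compound for about 90 hours before reading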
[8] = viability of PTEN-deleted HCT116 cells – cell-based, HCT116 PTEN knockout, dose response (AID 1047); type: functional;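 note: HCT116 colon tumor cells with PTEN knocked out; cells exposed to compound for 60 hours before readout; potency for loss of cell viability measured by luminescence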
[9] = viability of HCT116 lacking mutant beta-catenin – cell-based, human colon tumor, dose response (AID 1045); type: functional;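 note: HCT116 colon tumor cells with beta catenin knocked out; cells exposed to compound for 60 hours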
[10] = Trypanosoma cruzi growth suppression in host cells – NIH3T3 host cells, beta-gal luminescence, confirmation (AID 2044); type: functional, cell-based;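 note: intracellular parasites grown in NIH/3T3 mouse fibroblasts as host cells; luminescent beta-galactosidase reporter signal from transgenic T. cruzi replicating inside host cells; inhibitors lower the luminescence signal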
H9c2 = experiment: cells; type: functional, cell-based; settings: Rattus norvegicus, H9c2, Myocardium;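 note: confirmatory concentration-response retest of ultra-high-throughput screening hits for modulation of myocardial damage; cell death induced by hydrogen peroxide oxidative stress; compound pretreatment for 60 min then peroxide exposure for 2 h; potency is for protecting the cells against peroxide damage rather than for killing them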
Paired box protein Pax-8 = Paired box protein Pax-8 (Homo sapiens, UniProt Q06710); experiment: PAX8 transcriptional activity inhibition in RMG-I – RMG-I cells, luciferase, cherry-pick, dose response (AID 687027); type: functional, cell-based;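 note: luciferase reporter driven by Pax8 target thyroperoxidase promoter measured by SteadyGlo luminescence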
Sequence of Paired box protein Pax-8 (Q06710 whole entry): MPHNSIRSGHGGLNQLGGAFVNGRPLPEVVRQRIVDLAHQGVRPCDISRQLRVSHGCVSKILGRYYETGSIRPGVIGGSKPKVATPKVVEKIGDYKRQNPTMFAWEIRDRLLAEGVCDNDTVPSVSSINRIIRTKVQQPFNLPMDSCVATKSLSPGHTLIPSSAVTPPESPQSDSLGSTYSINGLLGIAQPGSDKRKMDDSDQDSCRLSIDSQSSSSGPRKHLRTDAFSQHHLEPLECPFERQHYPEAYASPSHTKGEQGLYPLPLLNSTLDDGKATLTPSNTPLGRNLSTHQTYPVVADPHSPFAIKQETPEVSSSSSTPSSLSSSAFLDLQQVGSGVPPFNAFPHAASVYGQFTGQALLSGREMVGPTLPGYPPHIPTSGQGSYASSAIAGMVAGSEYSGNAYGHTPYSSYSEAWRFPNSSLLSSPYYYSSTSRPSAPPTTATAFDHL

T1 sequence (P11940 whole entry, the tested form may be a part): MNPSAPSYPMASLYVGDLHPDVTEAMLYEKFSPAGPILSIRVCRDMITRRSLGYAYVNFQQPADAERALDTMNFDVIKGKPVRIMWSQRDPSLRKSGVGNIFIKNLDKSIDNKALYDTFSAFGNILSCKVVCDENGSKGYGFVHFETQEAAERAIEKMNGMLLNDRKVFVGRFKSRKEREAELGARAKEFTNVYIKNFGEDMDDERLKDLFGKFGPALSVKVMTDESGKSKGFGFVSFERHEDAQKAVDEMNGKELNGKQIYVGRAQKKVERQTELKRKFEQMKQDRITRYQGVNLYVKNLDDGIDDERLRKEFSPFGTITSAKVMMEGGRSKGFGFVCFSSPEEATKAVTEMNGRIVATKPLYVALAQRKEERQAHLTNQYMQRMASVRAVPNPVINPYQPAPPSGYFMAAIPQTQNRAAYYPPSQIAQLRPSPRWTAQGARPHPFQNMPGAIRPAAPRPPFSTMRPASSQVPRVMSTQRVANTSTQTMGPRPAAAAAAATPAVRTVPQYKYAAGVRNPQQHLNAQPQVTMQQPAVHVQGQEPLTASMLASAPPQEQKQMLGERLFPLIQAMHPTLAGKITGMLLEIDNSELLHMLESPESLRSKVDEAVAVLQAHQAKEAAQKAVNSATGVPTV

For `Cc1ccc(NC(=O)CSC2=NCCN2)cc1`, the IC50 [1] was > 66 µM (inactive) and the IC50 [2] was > 66 µM (inactive).
In the case of `CCCS(=O)(=O)N1CCC(C(=O)NCCCOC(C)C)CC1`, the IC50 [3] is reported as > 47.1 µM (inactive) and the EC50 [4] is reported as > 53 µM (inactive).
For `C=CCNCCOCCSc1ccc(Cl)cc1`, the EC50 [5] was > 260 µM (inactive).
With `CC(C)(O)C#Cc1ccc(C(=O)Nc2ccc3c(c2)OCO3)s1` the IC50 (cells) was 5 µM (active).
In the case of `O=C1CC(NNc2ccccc2)C(=O)N1c1ccccc1` (stereo not given), the AC50 [6] is reported as 0.382 µM (active) and the EC50 [5] is reported as > 260 µM (inactive).
In the case of `COCC(C)NC(=O)/C(=C/c1ccccc1)c1ccccc1` (stereo not given), the EC50 [5] is reported as > 260 µM (inactive).
For `NCCc1nnc(SCc2ccc(F)cc2)o1`, the EC50 [5] was > 260 µM (inactive).
For `CCCCCn1c(N)c(-c2nc3ccccc3s2)c2c([N+](=O)[O-])nn(C)c(=O)c21`, the EC50 [7] was > 60 µM (not active), the EC50 [8] was 10.1 µM (active) and the EC50 [9] was 12.5 µM (active). For the same compound, the EC50 [10] was 2.14 µM (active).
In the case of `O=C(Oc1cccc2c(O)nccc12)c1ccccc1`, the IC50 (H9c2) is reported as > 79 µM (inactive).
With `c1ccc(SCCOCCN2CCOCC2)cc1` the EC50 [5] was > 260 µM (inactive).
For `CC1CN(C(=O)CS(=O)(=O)Cc2ccccc2)CC(C)O1` (stereo not given), the EC50 [5] was > 260 µM (inactive).
With `Cc1ccc(N2CC(C(=O)NCc3nnc(O)c4ccccc34)CC2=O)cc1C` (stereo not given) the IC50 (H9c2) was > 79 µM (inactive).
In the case of `CN(C(=O)CCS(=O)(=O)c1ccc2c(c1)oc(=O)n2C)C1CCCCC1`, the IC50 [3] is reported as > 47.1 µM (inactive) and the EC50 [4] is reported as > 53 µM (inactive).
For `O=C(C[C@@H]1C/C=C/CC[C@@H](Cc2ccc(F)cc2)C(=O)O[C@@H](c2ccccc2)CNC1=O)NCCO`, the IC50 (H9c2) was 11.4 µM (active).
In the case of `COc1cccc(COC(=O)CCNC(=O)c2ccc(Cl)cc2)c1OC`, the IC50 (cells) is reported as 25.5 µM (active).
For `COc1ccccc1N1CCN(C(=O)C(=O)c2cn(CC(=O)N3CCCC3)c3ccccc23)CC1`, the IC50 [3] was > 47.1 µM (inactive) and the EC50 [4] was > 53 µM (inactive).
For `O=C(CCc1nc(O)c2ccccc2n1)N1CCN(S(=O)(=O)c2ccc(F)cc2)CC1`, the IC50 (H9c2) was > 79 µM (inactive).
For `CC(=O)c1ccc(NC(=O)C(C)OC(=O)c2ccc(Br)o2)cc1` (stereo not given), the IC50 [3] was > 47.1 µM (inactive) and the EC50 [4] was > 53 µM (inactive).
For `CC(C)(C)OC(=O)N1CCCN(C(=O)Nc2cccc(Cl)c2)CC1`, the IC50 [3] was > 47.1 µM (inactive) and the EC50 [4] was > 53 µM (inactive).
With `Cc1ccc(OCC(=O)Nc2ccc([N+](=O)[O-])cn2)cc1C` the IC50 [3] was > 47.1 µM (inactive) and the EC50 [4] was > 53 µM (inactive).
In the case of `Cc1ccccc1/N=C/c1cc2c(cc1[N+](=O)[O-])OCO2`, the IC50 (H9c2) is reported as > 79 µM (inactive).
In the case of `CN(C)S(=O)(=O)c1ccc(Cl)c(NC(=O)CNC2(C)CCS(=O)(=O)C2)c1` (stereo not given), the IC50 [3] is reported as > 47.1 µM (inactive) and the EC50 [4] is reported as > 53 µM (inactive).
In the case of `O=C1CSC(=S)N1/N=C/c1cccnc1`, the IC50 [1] is reported as > 66 µM (inactive) and the IC50 [2] is reported as > 66 µM (inactive).
For `C[C@@H]1CCCCO[C@@H](CN(C)CC2CCCCC2)[C@@H](C)CN([C@@H](C)CO)C(=O)c2cc(NC(=O)Nc3ccc(C(F)(F)F)cc3)ccc2O1`, the AC50 (Paired box protein Pax-8) was 12 µM (active).
In the case of `C[C@@H]1CN([C@H](C)CO)C(=O)c2cc(NC(=O)c3ccccc3)ccc2O[C@@H](C)CCCCO[C@H]1CN(C)Cc1ccc(C(F)(F)F)cc1`, the AC50 (Paired box protein Pax-8) is reported as 3.09 µM (active).
With `CS(=O)(=O)N(CC(=O)N/N=C/c1cc([N+](=O)[O-])ccc1Cl)c1ccccc1` the EC50 [8] was 26.4 µM (active) and the EC50 [9] was 24.4 µM (active).
